# Patent publication US5504103A, “Inhibition of phosphatidylinositol 3-kinase with 17 β-hydroxywortmannin and analogs thereof” (Eli Lilly and Company, priority 1993, dated 1996)
# Read-outs that look alike come from different tables or passages of the source.
# Experiments:
# [1] = tested on: PI 4-kinase; assay: Effect on PI 4-kinase; assay type: biochemical
# [2] = target: bovine brain purified PI 3-kinase; assay: Assay of purified PI 3-kinase activity (32P incorporation into phosphatidylinositol, TLC/scintillation); assay type: biochemical
# Method: In another, preferred, method, PI 3-kinase was prepared from bovine brain. Two bovine brains (wet weight about 900 g) were obtained from a local slaughterhouse within minutes of slaughter, packed on ice, and homogenized within one hour. Brains were trimmed of excess fat and blood vessels and then homogenized using a Tekmar Tissuemizer (Cincinnati, Ohio) at 4° C. in 20 mM of Tris(pH 8.3) containing 250 mM of sucrose, 6 mM of β-mercaptoethanol, 1 μg/ml of leupeptin, 1 μg/ml of pepstatin A, 0.4 mM of PMSF, and 1 mM of MgCl2.
# Following centrifugation for 60 minutes at 10,000×g, the pH of the supernatant (about 1200 mL) was lowered to 5.75 using dropwise addition of 1M acetic acid at 4° C. After stirring for an additional 15 minutes at 4° C., the solution was centrifuged for 60 minutes at 13,500×g. The supernatant was discarded. Pellets were resuspended in Buffer A (20 mM of Tris, pH 8.3, containing 6 mM of β-mercaptoethanol, 0.1 mM of ethylene glycol-bis(β-aminoethyl ether) N,N,N',N'-tetraacetic acid (EGTA), 1 μg/mL of leupeptin, 1 μg/mL of pepstatin A, and 1 mM of MgCl2), and loaded onto a Fast Flow Q Sepharose column (300 ml) at a flow rate of 5 mL/min at 4° C. […]
# PI 3-kinase activity was measured as previously described by Matter, W. F., et al., Biochemical and Biophysical Research Communications, 186: 624-631 (1992). […]
smiles,measurement,setting,value
COC[C@H]1OC(=O)c2coc3c2[C@@]1(C)C1=C(C3=O)[C@@H]2CC[C@H](O)[C@@]2(C)C[C@H]1OC(C)=O [17β-hydroxywortmannin],effect on PI 4-kinase,[1],no effect
same,IC50,[2],0.2 ng/mL
same,IC50,"[2]; molar value printed in parentheses, read-out: IC50",0.46 nM
